Test results from patent publication US20110165085A1, “TUMOR SELECTIVE FLUORESCENT STAINING AGENT” (THE UNIVERSITY OF TOKYO, priority 2006, published 2011).

Assays:
[1] = system: RGK1 (transformed, cancer model) and RGM1 (normal gastric mucosal epithelium) cells; experiment: Flow cytometry screening: average fluorescence intensity ratio of RGK1 relative to RGM1; assay type: cell-based, rat
Description: Screening for candidate compounds was performed in a cultured cell system. As cultured cells, rat normal gastric mucosal epithelium derived cells, RGM1, and transformed cells thereof, RGK1, were used as model cells of normal cell and cancer cell, respectively. For the culture of RGM1 and RGK1, a DMEM/HAM F12 (1:1) medium (10% FBS, 0.1% penicillin streptomycin) was used. Each of the compounds shown below (concentration: 0-1 μM) was loaded on these cells for 10 minutes, then the medium was replaced with the medium not containing the compounds, and after a given time, average fluorescence intensity was determined by flow cytometry. Effectiveness of each compound was evaluated on the basis of average of fluorescence intensity ratio of RGK1 relative to RGM1.
Various ester derivatives converted from acetyl ester of FDA shown in Table I were compared by flow cytometry in the same manner as that used in Example 1.

[2] = system: intracellular esterase (RGK1 and RGM1 cell lysates); experiment: Hydrolytic enzyme activity for FDA in the two types of cell lysates; assay type: biochemical, rat
Description: FDA is an esterase-sensitive fluorescent probe, and it enters into a cell by diffusion, then is hydrolyzed by an intracellular esterase to produce a fluorescent fluorescein, and gradually leaks out of the cell. Since the fluorescein is more hydrophilic compared with FDA, the leakage of the fluorescein out of the cell occurs much more slowly than the uptake of FDA into the cell. This process was compared for the normal cells and the cancer cells.

[3] = system: cancer cells and normal cells; experiment: Imaging of cancer and normal cells under a fluorescence microscope; assay type: cell-based, rat; conditions: fluorescence microscope IX71, excitation 470-490 nm, filter 500 nm
Description: Imaging was performed by using FDAcr under a fluorescence microscope.

esophagus cancer lesion = experiment: Fluorescence endoscopic imaging of NMBA rat esophagus cancer model; assay type: in vivo; conditions: endoscope (FIG. 4)
Description: By using FDAcr, imaging of an NMBA rat, an esophagus cancer model, was performed. A rat (10-week old, male) was subcutaneously injected with 1 mg of NMBA 5 times per week for the first to 5th weeks, and once per week for 6th to 15th weeks, and used for the experiment after 16th week. The rat was anesthetized by intraperitoneal administration of Nembutal (1 mL/kg body weight) and fixed on a rest in the dorsal position to maintain the airway. An endoscope was inserted into the esophagus for observation. […] In the same manner as Example 5, a fluorescent endoscopic image was obtained by using Cy-7, a cyanine near-infrared fluorescent dye.

colon cancer lesion = experiment: Fluorescence endoscopic imaging of colon cancer model rat; assay type: in vivo; conditions: enema 15 ml of 100 μM in PBS, 3 minutes, fiberscope (FIG. 5)
Description: By using FEAcr, imaging of a colon cancer model rat was performed. A colon cancer model rat was anesthetized with ether, and inside the colon was washed with 0.6% aqueous acetic acid. The inside of the colon was washed two to three times with PBS maintained at 37° C., and then an enema with 15 ml of 100 μM FDAcr (PBS solution) was performed from the anus and the anus was clogged to stand for 3 minutes. After 3 minutes, the inside of the colon was washed two to three times with PBS maintained at 37° C. A fiberscope (BF-3C40) was inserted in the colon to observe pathological legions.

| SMILES | average of fluorescence intensity ratio of RGK1 relative to RGM1 ([1]; compound 0-1 μM loaded 10 minutes, medium replaced, flow cytometry after a given time, among candidate compounds (FIG. 1)) | hydrolytic activity for FDA, RGK1 versus RGM1 [2] | performance for distinguishing cancer cells from normal cells (fluorescence intensity ratio) ([1]; flow cytometry as in Example 1, compared among ester derivatives of Table 1 (FIG. 2)) | fluorescence in cancer cells versus normal cells [3] | fluorescence intensity around esophagus cancer lesion versus normal tissues (esophagus cancer lesion) | fluorescence at colon cancer lesion (colon cancer lesion) |
| --- | --- | --- | --- | --- | --- | --- |
| CC(=O)Oc1ccc2c(c1)Oc1cc(OC(C)=O)ccc1C21OC(=O)c2ccccc21 [FDA, fluorescein diacetate] | highest fluorescence intensity ratio | about twice higher hydrolytic activity |  |  |  |  |
| C=CC(=O)Oc1ccc2c(c1)Oc1cc(OC(=O)C=C)ccc1C21OC(=O)c2ccccc21 [FDAcr, fluorescein diacrylate] |  |  | superior performance for distinguishing cancer cells from normal cells | Strong fluorescence was observed in the cancer cells | higher than that of normal tissues | Strong fluorescence was observed at each colon cancer lesion |
